Values belong to the compound of their own block, whether it stands above or below them.
Assays:
microorganisms = experiment: Germ count in process water of pasteurization plants (Plate Count Agar); format: cell-based
Text: In order to examine the influence of chlorine dioxide on the microbial quality of process water, the process water of a first pasteurization plant was mixed with the aqueous solution according to the invention containing chlorine dioxide, and the process water of a second pasteurization plant was mixed with a biocide.
(§1) The aqueous solution according to the invention containing chlorine dioxide (prepared with the persulfate-chlorite process) was metered discontinuously into the process water of the first pasteurization plant in an amount so as to keep the redox potential of the process water in the range of 400 to 800 mV. When the redox potential in the process water fell below 400 to 450 mV, the aqueous solution according to the invention containing chlorine dioxide was metered in until a redox potential between 750 and 800 mV was reached.
In contrast, bronopol was added to the process water of the second pasteurization plant on a time-controlled basis (every three days) in such an amount that the concentration of bronopol in the process water was […]. […]
The germ count in 1 ml of sample was determined using “Plate Count Agar” (PCA), with the appropriate amount of process water being applied to PCA plates. One plate at a time was incubated at 37° C., and one plate at a time was incubated at 28° C. The evaluation of the germ count took place after 2 and 5 days, respectively.

[1] = Redox potential of treated process water; format: physicochemical
Text: as §1
Concurrently. the redox potential of the pasteurization plant in which chlorine dioxide was metered into the process water was measured at the time of sampling for determining the germ count.
In 5 measurements within the examination period. the redox potential of the process water treated with bronopol always amounted to more than 1000 mV.

Structure (SMILES): [O][Cl+][O-] [chlorine dioxide]
Germ count/ml process water (microorganisms; 1 Mar. 2021): 940 mL⁻¹
Germ count/ml process water (microorganisms; 2 Feb. 2021): 7040 mL⁻¹
Germ count/ml process water (microorganisms; 4 Feb. 2021): 800 mL⁻¹
Germ count/ml process water (microorganisms; 4 Jan. 2021): 280 mL⁻¹
Germ count/ml process water (microorganisms; 5 Apr. 2021): 160 mL⁻¹
Germ count/ml process water (microorganisms; 7 Jan. 2021): 3840 mL⁻¹
Germ count/ml process water (microorganisms; 8 Apr. 2021): 2800 mL⁻¹
Germ count/ml process water (microorganisms; 8 Feb. 2021): 80 mL⁻¹
Germ count/ml process water (microorganisms; 11 Feb. 2021): 100 mL⁻¹
Germ count/ml process water (microorganisms; 11 Jan. 2021): 3480 mL⁻¹
Germ count/ml process water (microorganisms; 12 Apr. 2021): 6560 mL⁻¹
Germ count/ml process water (microorganisms; 12 Mar. 2021): 9200 mL⁻¹
Germ count/ml process water (microorganisms; 14 Jan. 2021): 3120 mL⁻¹
Germ count/ml process water (microorganisms; 15 Apr. 2021): 700 mL⁻¹
Germ count/ml process water (microorganisms; 15 Mar. 2021): 100 mL⁻¹
Germ count/ml process water (microorganisms; 17 Feb. 2021): 200 mL⁻¹
Germ count/ml process water (microorganisms; 18 Feb. 2021): 1120 mL⁻¹
Germ count/ml process water (microorganisms; 18 Jan. 2021): 4160 mL⁻¹
Germ count/ml process water (microorganisms; 18 Mar. 2021): 60 mL⁻¹
Germ count/ml process water (microorganisms; 19 Apr. 2021): 140 mL⁻¹
Germ count/ml process water (microorganisms; 21 Jan. 2021): 2100 mL⁻¹
Germ count/ml process water (microorganisms; 22 Feb. 2021): 1740 mL⁻¹
Germ count/ml process water (microorganisms; 22 Mar. 2021): 8000 mL⁻¹
Germ count/ml process water (microorganisms; 23 Apr. 2021): 2020 mL⁻¹
Germ count/ml process water (microorganisms; 25 Jan. 2021): 4800 mL⁻¹
Germ count/ml process water (microorganisms; 25 Mar. 2021): 10000 mL⁻¹
Germ count/ml process water (microorganisms; 26 Apr. 2021): 4500 mL⁻¹
Germ count/ml process water (microorganisms; 26 Feb. 2021): 2340 mL⁻¹
Germ count/ml process water (microorganisms; 28 Jan. 2021): 500 mL⁻¹
Germ count/ml process water (microorganisms; 29 Apr. 2021): 3700 mL⁻¹
Germ count/ml process water (microorganisms; 29 Mar. 2021): 10000 mL⁻¹
germ count compared with conventional biocide (in words) (microorganisms; redox potential kept at 400 to 800 mV, 4 months): lower germ count
Redox potential in process water ([1]; 1 Mar. 2021): 720 mV
Redox potential in process water ([1]; 2 Feb. 2021): 710 mV
Redox potential in process water ([1]; 4 Feb. 2021): 550 mV
Redox potential in process water ([1]; 4 Jan. 2021): 810 mV
Redox potential in process water ([1]; 5 Apr. 2021): 770 mV
Redox potential in process water ([1]; 7 Jan. 2021): 740 mV
Redox potential in process water ([1]; 8 Apr. 2021): 640 mV
Redox potential in process water ([1]; 8 Feb. 2021): 800 mV
Redox potential in process water ([1]; 11 Feb. 2021): 750 mV
Redox potential in process water ([1]; 11 Jan. 2021): 710 mV
Redox potential in process water ([1]; 12 Apr. 2021): 450 mV
Redox potential in process water ([1]; 12 Mar. 2021): 580 mV
Redox potential in process water ([1]; 14 Jan. 2021): 700 mV
Redox potential in process water ([1]; 15 Apr. 2021): 800 mV
Redox potential in process water ([1]; 15 Mar. 2021): 760 mV
Redox potential in process water ([1]; 17 Feb. 2021): 780 mV
Redox potential in process water ([1]; 18 Feb. 2021): 740 mV
Redox potential in process water ([1]; 18 Jan. 2021): 620 mV
Redox potential in process water ([1]; 18 Mar. 2021): 780 mV
Redox potential in process water ([1]; 19 Apr. 2021): 780 mV
Redox potential in process water ([1]; 21 Jan. 2021): 540 mV
Redox potential in process water ([1]; 22 Feb. 2021): 510 mV
Redox potential in process water ([1]; 22 Mar. 2021): 660 mV
Redox potential in process water ([1]; 23 Apr. 2021): 560 mV
Redox potential in process water ([1]; 25 Jan. 2021): 420 mV
Redox potential in process water ([1]; 25 Mar. 2021): 490 mV
Redox potential in process water ([1]; 26 Apr. 2021): 630 mV
Redox potential in process water ([1]; 26 Feb. 2021): 640 mV
Redox potential in process water ([1]; 28 Jan. 2021): 790 mV
Redox potential in process water ([1]; 29 Apr. 2021): 680 mV
Redox potential in process water ([1]; 29 Mar. 2021): 430 mV

redox potential of the process water ([1]; 5 measurements within the examination period): more than 1000 mV
Structure (SMILES): O=[N+]([O-])C(Br)(CO)CO [bronopol, reference compound]
Germ count/ml process water (microorganisms; 1 Mar. 2021): >10000 mL⁻¹
Germ count/ml process water (microorganisms; 2 Feb. 2021): 81600 mL⁻¹
Germ count/ml process water (microorganisms; 4 Feb. 2021): >10000 mL⁻¹
Germ count/ml process water (microorganisms; 4 Jan. 2021): 3600 mL⁻¹
Germ count/ml process water (microorganisms; 5 Apr. 2021): >10000 mL⁻¹
Germ count/ml process water (microorganisms; 7 Jan. 2021): 4200 mL⁻¹
Germ count/ml process water (microorganisms; 8 Apr. 2021): >10000 mL⁻¹
Germ count/ml process water (microorganisms; 8 Feb. 2021): >10000 mL⁻¹
Germ count/ml process water (microorganisms; 11 Feb. 2021): >10000 mL⁻¹
Germ count/ml process water (microorganisms; 11 Jan. 2021): 3400 mL⁻¹
Germ count/ml process water (microorganisms; 12 Apr. 2021): >10000 mL⁻¹
Germ count/ml process water (microorganisms; 12 Mar. 2021): >10000 mL⁻¹
Germ count/ml process water (microorganisms; 14 Jan. 2021): >10000 mL⁻¹
Germ count/ml process water (microorganisms; 15 Apr. 2021): >10000 mL⁻¹
Germ count/ml process water (microorganisms; 15 Mar. 2021): >10000 mL⁻¹
Germ count/ml process water (microorganisms; 17 Feb. 2021): 76000 mL⁻¹
Germ count/ml process water (microorganisms; 18 Feb. 2021): >10000 mL⁻¹
Germ count/ml process water (microorganisms; 18 Jan. 2021): >10000 mL⁻¹
Germ count/ml process water (microorganisms; 18 Mar. 2021): >10000 mL⁻¹
Germ count/ml process water (microorganisms; 19 Apr. 2021): >10000 mL⁻¹
Germ count/ml process water (microorganisms; 21 Jan. 2021): 60200 mL⁻¹
Germ count/ml process water (microorganisms; 22 Feb. 2021): >10000 mL⁻¹
Germ count/ml process water (microorganisms; 22 Mar. 2021): >10000 mL⁻¹
Germ count/ml process water (microorganisms; 23 Apr. 2021): >10000 mL⁻¹
Germ count/ml process water (microorganisms; 25 Jan. 2021): >10000 mL⁻¹
Germ count/ml process water (microorganisms; 25 Mar. 2021): >10000 mL⁻¹
Germ count/ml process water (microorganisms; 26 Apr. 2021): >10000 mL⁻¹
Germ count/ml process water (microorganisms; 26 Feb. 2021): 51000 mL⁻¹
Germ count/ml process water (microorganisms; 28 Jan. 2021): 54400 mL⁻¹
Germ count/ml process water (microorganisms; 29 Apr. 2021): >10000 mL⁻¹
Germ count/ml process water (microorganisms; 29 Mar. 2021): >10000 mL⁻¹
